The target in series [1] is HCV polymerase (Hepatitis C virus genotype 1b, UniProt Q9WMX2). Kind of series: Biochemical HCV polymerase inhibition.
Series [2] deals with T1, dengue virus NS5 polymerase domain (DENVpol, serotype 2, New Guinea C strain) (Dengue virus type 2, UniProt P14340).
T1 construct: The enzyme activity of dengue virus NS5 polymerase domain
Put plainly: Dengue virus polymerase inhibition assay. The format is biochemical, dengue virus serotype 2. The method, then:
The enzyme activity of dengue virus NS5 polymerase domain (DENVpol, serotype 2, New Guinea C strain) is measured as an incorporation of tritiated NMP into acid-insoluble RNA products. DENVpol assay reactions contain recombinant enzyme, heteropolymeric RNA, about 0.5 μCi tritiated NTP, 0.33 μM of competing cold NTP, 40 mM HEPES (pH 7.5), 3 mM dithiothreitol, and 2 mM MgCl2. Standard reactions are incubated for 3 hours at 30° C., in the presence of increasing concentration of inhibitor. At the end of the reaction, RNA is precipitated with 10% TCA, and acid-insoluble RNA products are filtered on a size exclusion 96-well plate. After washing of the plate, scintillation liquid is added and radiolabeled RNA products are detected according to standard procedures with a Trilux Topcount scintillation counter. The compound concentration at which the enzyme-catalyzed rate is reduced by 50% (IC50) is calculated by fitting the data to a non-linear regression (sigmoidal).

Series [3] relates to DENV-2/16681/eGFP. Kind of series: Antiviral activity against DENV-2/16681/eGFP in Huh-7 cells (eGFP read-out). Format: cell-based, dengue virus serotype 2. As to conditions: Dengue virus, DENV2, Huh-7, 72 h, read-out: DENV Huh-7 (EC50, μM). The method, then: (§1) The antiviral activity of the compounds against DENV-2/16681/eGFP was determined in a phenotypic antiviral assay with eGFP read-out, a measure for the amount of virus (TV-WI-03476 and TV-WI-05601). In parallel, cytotoxicity of the compounds was measured using ATPLite™ (PerkinElmer, Waltham, Mass.). The assay was performed in two different cell-lines (Vero and Huh-7) to exclude cell-specific activity of the compound.
(§2) DENV-2/16681/eGFP was produced by the transfection of the in vitro transcribed RNA of plasmid pFK-DVs-G2A (purchased from Prof. R. Bartenschlager, University of Heidelberg, Germany; FIG. 1) into Huh-7 cells (human hepatocarcinoma cells; kindly provided by Prof. R. Bartenschlager) (TV-WI-04247).
(§3) In brief, 2,500 Vero cells (African green monkey kidney cells; European Collection of Cell Cultures [ECACC], Porton Down, UK; catalogue number 84113001) or Huh-7 cells were seeded in 384-well plates containing 9-fold serially diluted test compound. After incubating 24 h at 37° C., Vero and Huh-7 cells were infected with DENV-2/16681/eGFP at a multiplicity of infection (MOI) of 1 and 5, respectively. After 3 days of incubation at 37° C., the viral replication was quantified by measuring eGFP expression in the cells with a laser microscope. The 50% effective concentration (EC50) was defined as the concentration inhibiting 50% of the eGFP expression of the compound-treated DENV-infected cells vs. the untreated DENV-infected cells (virus control), using the cell controls as baseline of eGFP signal (i.e., 0% signal). In the same way, the 90% effective concentration (EC90) was calculated.

In series [4] the test system is HCV replicon (NS3-NS5B regions of HCV type 1b) in Huh-7 luc/neo cells. Put plainly: HCV replicon assay (Huh-Luc cells, luciferase read-out). The format is cell-based. As to conditions: Hepatitis C virus, Huh-7, 72 h; Table 1A; Huh-Luc replicon cells, 3 days; read-out: HCV Huh-7 (EC50). From the text: The compounds of Formula (I) were examined for activity against HCV in a cellular assay. […] The cellular assay was based on a bicistronic expression construct, as described by Lohmann et al. (1999) Science vol. 285 pp. 110-113 with modifications described by Krieger et al. (2001) Journal of Virology 75: 4614-4624, in a multi-target screening strategy.
In essence, the method was as follows. The assay utilized the stably transfected cell line Huh-7 luc/neo (hereafter referred to as Huh-Luc). This cell line harbors an RNA encoding a bicistronic expression construct comprising the wild type NS3-NS5B regions of HCV type 1b translated from an internal ribosome entry site (IRES) from encephalomyocarditis virus (EMCV), preceded by a reporter portion (FfL-luciferase), and a selectable marker portion (neo^R, neomycine phosphotransferase). The construct is bordered by 5′ and 3′ NTRs (non-translated regions) from HCV genotype 1b. Continued culture of the replicon cells in the presence of G418 (neo^R) is dependent on the replication of the HCV-RNA. The stably transfected replicon cells that express HCV-RNA, which replicates autonomously and to high levels, encoding inter alia luciferase, were used for screening the antiviral compounds.
The replicon cells were plated in 384-well plates in the presence of the test and control compounds which were added in various concentrations. Following an incubation of three days, HCV replication was measured by assaying luciferase activity (using standard luciferase assay substrates and reagents and a Perkin Elmer ViewLux™ ultraHTS microplate imager). Replicon cells in the control cultures have high luciferase expression in the absence of any inhibitor. The inhibitory activity of the compound on luciferase activity was monitored on the Huh-Luc cells, enabling a dose-response curve for each test compound. EC50 values were then calculated, which value represents the amount of the compound required to decrease the level of detected luciferase activity by 50%, or more specifically, the ability of the genetically linked HCV replicon RNA to replicate.

A short description of series [5]: Cytotoxicity in Vero cells (ATPlite cell viability). The format is cell-based. As to conditions: African green monkey, Table 1A, read-out: Tox Vero (CC50). The method, then:
as §1
(§4) In parallel, cytotoxic effects of the compounds (50% cytotoxic concentration [CC50] and 90% cytotoxic concentration [CC90]) were evaluated using an ATPlite cell viability luminescence assay (PerkinElmer). To this end, ATPlite was added to the wells according to the supplier's instructions once the eGFP read-out was performed, and the luminescence was measured; a measure directly relating to the number of viable cells. The CC50 was determined as the 50% inhibitory concentration for the luminescent signal in compound-treated DENV-infected cells compared to untreated DENV-infected cells (virus control), using a medium control as baseline of emitted light (i.e., 0% signal).
A general note: Cellular ATP, detected with luciferase, serves as a proxy for viable cell number.

The test system of series [6] is CHIKV strain S27. Kind of series: CHIKV CPE inhibition assay in Huh7 cells. The format is cell-based. As to conditions: Chikungunya virus, Huh-7, 48 h. Here is the method: The antiviral activities of the nucleoside analogs against chikungunya virus (CHIKV) were tested using a cell-based high-throughput CPE (cytopathic effect) inhibition assay. In this assay, CHIKV strain S27 and Huh7 cells (a human hepatoma cell line) were employed. The test compounds were prepared in a 9-point fourfold serial dilutions and plated in a 384-well plate. Then, a density of 8000 cells/well and an MOI (Multiplicity of Infection) of 0.25 CHIKV were added to each well. The plates were incubated at 37° C./5% CO2 for 2 days. The antiviral activity of a test compound was measured by addition of an ATPLite™ 1-step kit (PerkinElmer), which measures the ATP levels in live cells protected from viral CPE by a test compound. The cytotoxicity of test compounds was measured in parallel in the absence of virus infection. The readout is luminescence.

Series [7] is described as follows: Cytotoxicity in Huh-7 cells (ATPlite cell viability). Format: cell-based. As to conditions: human, Table 1A, read-out: Tox Huh-7 (CC50). Here is the method:
as §1, §4

Series [8] concerns DENV-2/16681/eGFP. Put plainly: Antiviral activity against DENV-2/16681/eGFP in Vero cells (eGFP read-out). Format: cell-based, dengue virus serotype 2. Conditions: Dengue virus, DENV2, Vero, 72 h, read-out: DENV Vero (EC50, μM). The method, then: as §1, §2, §3

Consider eight molecules from patent publication US11267844B2, “Spirothietane nucleosides” (Janssen Pharmaceutica NV, priority 2017, dated 2022).

Where two headings read alike, the source gives them in different places.

HCV polymerase, sequence (Q9WMX2 2420-3010): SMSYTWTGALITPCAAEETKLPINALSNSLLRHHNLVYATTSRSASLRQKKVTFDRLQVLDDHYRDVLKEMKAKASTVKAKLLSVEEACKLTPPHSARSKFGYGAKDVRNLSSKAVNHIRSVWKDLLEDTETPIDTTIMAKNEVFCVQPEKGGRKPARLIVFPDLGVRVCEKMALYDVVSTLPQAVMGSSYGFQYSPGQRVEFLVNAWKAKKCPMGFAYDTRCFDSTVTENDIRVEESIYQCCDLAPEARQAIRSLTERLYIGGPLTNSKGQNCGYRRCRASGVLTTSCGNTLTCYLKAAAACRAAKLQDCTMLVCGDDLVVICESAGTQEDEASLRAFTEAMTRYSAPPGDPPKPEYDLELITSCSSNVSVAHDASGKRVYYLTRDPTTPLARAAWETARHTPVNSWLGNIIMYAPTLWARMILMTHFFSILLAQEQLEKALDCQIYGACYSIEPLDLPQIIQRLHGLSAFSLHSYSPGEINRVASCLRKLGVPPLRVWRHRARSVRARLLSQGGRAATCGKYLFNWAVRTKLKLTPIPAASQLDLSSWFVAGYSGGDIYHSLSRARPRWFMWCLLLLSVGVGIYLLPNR

As for `O=c1ccn([C@@H]2O[C@](F)(COP(=O)(O)OP(=O)(O)OP(=O)(O)O)[C@@H](O)[C@]23CCS3)c(=O)[nH]1` [Compound 60], the IC50 is 0.69 µM in series [1] and over 10 µM in series [2].

Take `Nc1ccn([C@@H]2O[C@](F)(COP(=O)(O)OP(=O)(O)OP(=O)(O)O)[C@@H](O)[C@]23CCS3)c(=O)n1` [Compound 61]: the values for the IC50 in series [1] and in series [2] were 0.16 µM and 2.44 µM, respectively.

Turning to `Nc1ccn([C@@H]2O[C@H](COP(=O)(O)OP(=O)(O)OP(=O)(O)O)[C@@H](O)[C@]23CCS3)c(=O)n1` [Compound 59], the IC50 was 0.32 µM in series [1] and 2.91 µM in series [2].

For `O=c1ccn([C@@H]2O[C@H](COP(=O)(O)OP(=O)(O)OP(=O)(O)O)[C@@H](O)[C@]23CCS3)c(=O)[nH]1` [Compound 58], the IC50 is 0.74 µM in series [1] and 49.7 µM in series [2].

Consider `[N-]=[N+]=N[C@]1(COP(=O)(O)OP(=O)(O)OP(=O)(O)O)O[C@@H](n2ccc(=O)[nH]c2=O)[C@@]2(CCS2)[C@@H]1O` [Compound 62], for which the IC50 in series [1] stood at 0.56 µM.

For `Nc1nc2c(ncn2[C@@H]2O[C@H](COP(=O)(O)OP(=O)(O)OP(=O)(O)O)[C@@H](O)[C@]23CCS3)c(=O)[nH]1` [Compound 63], the IC50 in series [1] is 0.18 µM; in series [2], over 10 µM.

Consider `CC(C)OC(=O)C(C)NP(=O)(OC[C@@]1(N=[N+]=[N-])O[C@@H](n2ccc(=O)[nH]c2=O)[C@@]2(CCS2)[C@@H]1O)Oc1ccccc1` (stereo in doubt) [Compound 45, isopropyl (2R)-2-[[[(4R,5R,6R,8R)-6-azido-8-(2,4-dioxopyrimidin-1-yl)-5-hydroxy-7-oxa-1-thiaspiro[3.4]octan-6-yl]methoxy-phenoxy-phosphoryl]amino]propanoate], for which the EC50 in series [3] is 62 µM; in series [4] it was 5 µM; in series [6] (Table 1A, Huh7 cells, MOI 0.25, 2 days, read-out: CHIKV Huh-7 (EC50)), over 100 µM; in series [8], 62 µM. Further, the CC50 in series [5] and in series [7] was over 100 µM throughout.

Take `CC(C)C(=O)OC[C@H]1O[C@@H](n2ccc(N)nc2=O)[C@@]2(CCS2)[C@@H]1OC(=O)C(C)C` [Compound 11, (4R,5R,7R,8R)-5-(4-amino-2-oxopyrimidin-1(2H)-yl)-7-((isobutyryloxy)methyl)-6-oxa-1-thiaspiro[3.4]octan-8-yl isobutyrate]: the EC50 was over 100 µM in series [3]; over 100 µM in series [4]; over 100 µM in series [6] (read-out: CHIKV Huh-7 (EC50, μM)); over 100 µM in series [8]. Also, the CC50 in series [5] and in series [7] was over 100 µM each time.

Usually IC50 stands for the concentration needed to halve the response being measured. Lower therefore signals higher potency. Usually EC50 stands for the concentration at which the effect is half-maximal. Broadly, the CC50 is the concentration that lowers cell viability or growth by half.
